Laboratory results as given in patent publication US8802597B2, “Herbicidal pyrimidines” (E I du Pont de Nemours and Company, priority 2003, dated 2014).

Assays:
Assay in all cases: Test C pre/postemergence
Assay type in all cases: in vivo
[1] = tested on: cocklebur (Xanthium strumarium); conditions: for Plant response rating, Cocklebur: Preemergence
In short: (§1)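 Percent control is a visual rating (0 none, 100 complete) taken against untreated plants after 12 to 14 days of greenhouse growth. Applications were made preemergence to seeded pots and postemergence to plants at the 1- to 4-leaf stage, in a non-phytotoxic surfactant-containing solvent.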

[2] = tested on: common (oilseed) sunflower (Helianthus annuus); conditions: Preemergence, scale 0 to 100, 0 no effect, 100 complete control
In short: as §1

[3] = tested on: common ragweed (Ambrosia elatior); conditions: for Plant response rating, Ragweed: Preemergence, scale 0 to 100, 0 no effect, 100 complete control
In short: as §1

[4] = tested on: crabgrass (Digitaria sanguinalis); conditions: for Plant response rating, Crabgrass: Preemergence
In short: as §1

[5] = tested on: eastern black nightshade (Solanum ptycanthum); conditions: Preemergence, scale 0 to 100, 0 no effect, 100 complete control
In short: as §1

[6] = tested on: giant foxtail (Setaria faberii); conditions: for Plant response rating, Foxtail, Giant: Preemergence
In short: as §1

kochia (Kochia scoparia) = conditions: for Plant response rating, Kochia: Preemergence
In short: as §1

[7] = tested on: morningglory (Ipomoea coccinea); conditions: for Plant response rating, Morningglory: Preemergence
In short: as §1

[8] = tested on: pigweed (Amaranthus retroflexus); conditions: for Plant response rating, Pigweed: Preemergence, scale 0 to 100, 0 no effect, 100 complete control
In short: as §1

[9] = tested on: velvetleaf (Abutilon theophrasti); conditions: for Plant response rating, Velvetleaf: Preemergence, scale 0 to 100, 0 no effect, 100 complete control
In short: as §1

[10] = tested on: woolly cupgrass (Eriochloa villosa); conditions: for Plant response rating, Cupgrass, Woolly: Preemergence
In short: as §1

[11] = tested on: yellow nutsedge (Cyperus esculentus); conditions: for Plant response rating, Nutsedge, Yellow: Preemergence, scale 0 to 100, 0 no effect, 100 complete control
In short: as §1

[12] = Postemergence, 125 g ai/ha, scale 0 to 100 (0 no effect, 100 complete control)
[13] = 16 g ai/ha, scale 0 to 100, 0 no effect, 100 complete control
[14] = 31 g ai/ha, scale 0 to 100, 0 no effect, 100 complete control
[15] = 62 g ai/ha, scale 0 to 100, 0 no effect, 100 complete control

CCCCOC(=O)c1nc(C2CC2)nc(N)c1Cl [Compound 76]
50: Plant response rating, Sunflower ([2]; 16 g ai/ha) | Plant response rating, Ragweed ([3]; 16 g ai/ha) | Plant response rating, Cupgrass, Woolly ([10]; 125 g ai/ha, scale 0 to 100)
60: Plant response rating, Ragweed ([3]; 31 g ai/ha) | Plant response rating, Crabgrass ([4]; 125 g ai/ha, scale 0 to 100) | Plant response rating, Nightshade ([5]; 62 g ai/ha) | Plant response rating, Morningglory [7, 14] | Plant response rating, Pigweed ([8]; 16 g ai/ha) | Plant response rating (scale of 0 to 100), Cupgrass, Woolly ([10]; Postemergence, 31 g ai/ha) | Nutsedge, Yellow plant response rating [11, 12]
10: Plant response rating, Foxtail, Giant ([6]; 125 g ai/ha, scale 0 to 100) | Plant response rating (scale of 0 to 100), Nutsedge, Yellow ([11]; Postemergence, 16 g ai/ha)
25: Plant response rating (scale of 0 to 100), Foxtail, Giant ([6]; Postemergence, 31 g ai/ha)
20: Plant response rating, Cupgrass, Woolly [10, 15]
85: Plant response rating, Sunflower ([2]; 31 g ai/ha) | Plant response rating (scale of 0 to 100), Crabgrass ([4]; Postemergence, 62 g ai/ha) | Foxtail, Giant plant response rating [6, 12] | Plant response rating (scale of 0 to 100), Pigweed ([8]; Postemergence, 16 g ai/ha)
55: Plant response rating (scale of 0 to 100), Crabgrass ([4]; Postemergence, 16 g ai/ha) | Plant response rating (scale of 0 to 100), Foxtail, Giant ([6]; Postemergence, 62 g ai/ha) | Plant response rating (scale of 0 to 100), Cupgrass, Woolly ([10]; Postemergence, 16 g ai/ha)
100: Plant response rating (scale of 0 to 100), Cocklebur ([1]; Postemergence, 16 g ai/ha) | Plant response rating (scale of 0 to 100), Cocklebur ([1]; Postemergence, 31 g ai/ha) | Plant response rating (scale of 0 to 100), Cocklebur ([1]; Postemergence, 62 g ai/ha) | Cocklebur plant response rating [1, 12] | Plant response rating, Sunflower ([2]; 62 g ai/ha) | Ragweed plant response rating [3, 12] | Plant response rating, Ragweed [3] | Plant response rating, Nightshade [5] | Kochia plant response rating (kochia (Kochia scoparia); [12]) | Plant response rating, Kochia (kochia (Kochia scoparia); 125 g ai/ha, scale 0 to 100) | Morningglory plant response rating [7, 12] | Plant response rating, Morningglory [7, 15] | Plant response rating, Morningglory ([7]; 125 g ai/ha, scale 0 to 100) | Plant response rating (scale of 0 to 100), Pigweed ([8]; Postemergence, 62 g ai/ha) | Pigweed plant response rating [8, 12]
80: Plant response rating (scale of 0 to 100), Ragweed ([3]; Postemergence, 16 g ai/ha) | Plant response rating, Ragweed ([3]; 62 g ai/ha) | Plant response rating, Pigweed ([8]; 31 g ai/ha) | Plant response rating, Pigweed ([8]; 62 g ai/ha) | Plant response rating (scale of 0 to 100), Velvetleaf ([9]; Postemergence, 31 g ai/ha) | Plant response rating (scale of 0 to 100), Cupgrass, Woolly ([10]; Postemergence, 62 g ai/ha)
45: Plant response rating (scale of 0 to 100), Velvetleaf ([9]; Postemergence, 16 g ai/ha)
40: Plant response rating, Nightshade ([5]; 31 g ai/ha) | Plant response rating, Morningglory [7, 13] | Plant response rating, Velvetleaf ([9]; 31 g ai/ha) | Plant response rating (scale of 0 to 100), Nutsedge, Yellow ([11]; Postemergence, 62 g ai/ha)
95: Plant response rating (scale of 0 to 100), Ragweed ([3]; Postemergence, 62 g ai/ha) | Plant response rating (scale of 0 to 100), Kochia (kochia (Kochia scoparia); Postemergence, 31 g ai/ha) | Plant response rating (scale of 0 to 100), Kochia (kochia (Kochia scoparia); Postemergence, 62 g ai/ha) | Plant response rating, Kochia (kochia (Kochia scoparia); [15]) | Plant response rating (scale of 0 to 100), Morningglory ([7]; Postemergence, 16 g ai/ha) | Plant response rating (scale of 0 to 100), Morningglory ([7]; Postemergence, 31 g ai/ha) | Plant response rating (scale of 0 to 100), Morningglory ([7]; Postemergence, 62 g ai/ha) | Plant response rating (scale of 0 to 100), Pigweed ([8]; Postemergence, 31 g ai/ha) | Plant response rating (scale of 0 to 100), Velvetleaf ([9]; Postemergence, 62 g ai/ha) | Velvetleaf plant response rating [9, 12] | Cupgrass, Woolly plant response rating [10, 12]
0: Plant response rating, Crabgrass [4, 13] | Plant response rating, Crabgrass [4, 14] | Plant response rating, Foxtail, Giant [6, 13] | Plant response rating, Foxtail, Giant [6, 14] | Plant response rating, Foxtail, Giant [6, 15] | Plant response rating, Cupgrass, Woolly [10, 13] | Plant response rating, Cupgrass, Woolly [10, 14] | Plant response rating, Nutsedge, Yellow ([11]; 16 g ai/ha) | Plant response rating, Nutsedge, Yellow ([11]; 31 g ai/ha) | Plant response rating, Nutsedge, Yellow ([11]; 62 g ai/ha)
30: Plant response rating, Nightshade ([5]; 16 g ai/ha) | Plant response rating, Velvetleaf ([9]; 16 g ai/ha) | Plant response rating (scale of 0 to 100), Nutsedge, Yellow ([11]; Postemergence, 31 g ai/ha)
90: Plant response rating, Cocklebur [1, 14] | Plant response rating, Cocklebur [1, 15] | Plant response rating, Cocklebur ([1]; 125 g ai/ha, scale 0 to 100) | Plant response rating (scale of 0 to 100), Ragweed ([3]; Postemergence, 31 g ai/ha) | Crabgrass plant response rating [4, 12] | Plant response rating (scale of 0 to 100), Kochia (kochia (Kochia scoparia); Postemergence, 16 g ai/ha) | Plant response rating, Kochia (kochia (Kochia scoparia); [14])
70: Plant response rating, Kochia (kochia (Kochia scoparia); [13]) | Plant response rating, Velvetleaf ([9]; 62 g ai/ha)
15: Plant response rating (scale of 0 to 100), Foxtail, Giant ([6]; Postemergence, 16 g ai/ha)
5: Plant response rating, Crabgrass [4, 15]
75: Plant response rating (scale of 0 to 100), Crabgrass ([4]; Postemergence, 31 g ai/ha)
65: Plant response rating, Cocklebur [1, 13]
